The values below come from ChEMBL document CHEMBL1141354, “Isolation and structures of erylosides from the Carribean sponge Erylus goffrilleri” (J Nat Prod, 2007).

As a reminder, the IC50 is the midpoint of a concentration-inhibition curve. A high value points to weaker potency in that assay.

This assay deals with Ehrlich. The experiment in a line: Cytotoxicity against albino mouse Ehrlich carcinoma cells after 1 hr. In kind it is functional, cell-based.
Consider `CC(=O)N[C@H]1[C@H](O[C@H]2[C@H](O[C@H]3CC[C@]4(C)C5=C(CC[C@H]4C3(C)C)[C@]3(C(=O)O)CCC([C@H](C)CCC(C)(OC(C)=O)C(C)C)[C@@]3(C)CC5)O[C@H](CO)[C@H](O)[C@@H]2O)O[C@H](CO)[C@@H](O)[C@@H]1O` (stereo partly specified) [ERYLOSIDE F6], for which the IC50 was 20 µM. Take `C[C@H](CCC(C)(O)C(C)(C)C)C1CC[C@@]2(C(=O)O)C3=C(CC[C@]12C)[C@@]1(C)CC[C@H](O[C@@H]2O[C@H](CO)[C@H](O)[C@H](O[C@@H]4O[C@H](CO)[C@@H](O)[C@H](O)[C@H]4O)[C@H]2O)C(C)(C)[C@@H]1CC3` (stereo partly specified) [ERYLOSIDE F7]: the IC50 stood at 20 µM.

On to `C[C@H](CCC(C)(O)C(C)(C)C)C1CC[C@@]2(C(=O)O)C3=C(CC[C@]12C)[C@@]1(C)CC[C@H](O[C@@H]2O[C@H](CO)[C@H](O)[C@H](O)[C@H]2O)C(C)(C)[C@@H]1CC3` (stereo partly specified) [ERYLOSIDE R], for which 20 µM corresponded to half-maximal inhibition (IC50). In the case of `CC(=O)OC(C)(CC[C@@H](C)C1CC[C@@]2(C(=O)O)C3=C(CC[C@]12C)[C@@]1(C)CC[C@H](O[C@@H]2O[C@H](CO)[C@H](O)[C@H](O)[C@H]2O)C(C)(C)[C@@H]1CC3)C(C)C` (stereo partly specified) [ERYLOSIDE S], the IC50 was determined as 20 µM.

The compound `C[C@H](CCC(C)(O)C(C)(C)C)C1CC[C@]23C(=O)O[C@]4(CC[C@]12C)C3=CC[C@H]1C(C)(C)[C@@H](O[C@@H]2O[C@H](CO)[C@H](O)[C@H](O)[C@H]2O)CC[C@@]14C` (stereo partly specified) [ERYLOSIDE T] registered an IC50 of 20 µM. Take `C[C@H](CCC(C)(O)C(C)(C)C)C1CC[C@@]2(C(=O)O)C3=C(CC[C@]12C)[C@@]1(C)CC[C@H](O[C@@H]2OC[C@H](O)[C@H](O[C@@H]4OC[C@@H](O)[C@H](O)[C@H]4O)[C@H]2O[C@@H]2O[C@H](CO)[C@H](O)[C@H](O)[C@H]2O)C(C)(C)[C@@H]1CC3` (stereo partly specified) [ERYLOSIDE V]: the IC50 was 20 µM.
